These results are taken from article PMC8035211 (Nature Communications, 2021).

Read-outs that look alike come from different tables or passages of the source.

For assay [1], the target named is T1, FgCelDH7C (Fusarium graminearum, UniProt I1RWY4).
T1 construct: gene FGRAMPH1_01T10923
Format: biochemical. The settings on record: apparent, 0.1 mM DCIP as acceptor, 50 mM HEPES pH 7.0, 35 °C.

The next assay deals with T2, MoChi7A (Pyricularia oryzae, UniProt G4NAH7).
T2 construct: gene MGG_09717
Format: biochemical. The settings on record: apparent; O2 as acceptor; 50 mM NaOAc pH 5.2, 35 °C; read-out: Enzyme / MoChi7A / Cellotriose.

For assay [2], the target named is T1, FgCelDH7C. Format: binding. The conditions noted are these: covalent; mono-covalent histidyl tether.
Another assay concerns the target T3, FgChi7B (Fusarium graminearum, UniProt A0A098DND1).
T3 construct: gene FGRAMPH1_01T15319
The conditions noted are these: covalent; bi-covalent, 6-S-cysteinyl C162 and 8alpha-N1-histidyl H102.

T2 sequence (G4NAH7 21-718 limits assumed): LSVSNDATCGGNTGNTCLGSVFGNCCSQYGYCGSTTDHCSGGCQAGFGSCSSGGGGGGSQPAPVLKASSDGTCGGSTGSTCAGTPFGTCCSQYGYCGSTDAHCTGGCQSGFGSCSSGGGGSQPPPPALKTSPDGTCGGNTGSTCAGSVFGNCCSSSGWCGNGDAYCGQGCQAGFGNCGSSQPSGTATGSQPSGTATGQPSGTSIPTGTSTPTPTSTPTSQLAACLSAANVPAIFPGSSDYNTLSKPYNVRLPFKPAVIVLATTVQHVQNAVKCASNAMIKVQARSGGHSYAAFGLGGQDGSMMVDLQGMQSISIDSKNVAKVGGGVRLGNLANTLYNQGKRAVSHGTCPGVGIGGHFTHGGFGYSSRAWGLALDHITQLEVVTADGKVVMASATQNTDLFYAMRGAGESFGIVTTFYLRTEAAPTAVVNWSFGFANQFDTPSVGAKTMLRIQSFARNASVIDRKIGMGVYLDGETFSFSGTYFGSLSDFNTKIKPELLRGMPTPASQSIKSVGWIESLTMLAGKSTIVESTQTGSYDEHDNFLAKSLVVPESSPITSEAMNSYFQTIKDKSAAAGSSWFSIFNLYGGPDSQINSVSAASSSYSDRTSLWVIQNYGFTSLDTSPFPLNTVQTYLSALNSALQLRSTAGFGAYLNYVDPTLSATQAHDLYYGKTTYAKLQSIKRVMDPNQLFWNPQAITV
T1 sequence (I1RWY4 24-499 limits assumed): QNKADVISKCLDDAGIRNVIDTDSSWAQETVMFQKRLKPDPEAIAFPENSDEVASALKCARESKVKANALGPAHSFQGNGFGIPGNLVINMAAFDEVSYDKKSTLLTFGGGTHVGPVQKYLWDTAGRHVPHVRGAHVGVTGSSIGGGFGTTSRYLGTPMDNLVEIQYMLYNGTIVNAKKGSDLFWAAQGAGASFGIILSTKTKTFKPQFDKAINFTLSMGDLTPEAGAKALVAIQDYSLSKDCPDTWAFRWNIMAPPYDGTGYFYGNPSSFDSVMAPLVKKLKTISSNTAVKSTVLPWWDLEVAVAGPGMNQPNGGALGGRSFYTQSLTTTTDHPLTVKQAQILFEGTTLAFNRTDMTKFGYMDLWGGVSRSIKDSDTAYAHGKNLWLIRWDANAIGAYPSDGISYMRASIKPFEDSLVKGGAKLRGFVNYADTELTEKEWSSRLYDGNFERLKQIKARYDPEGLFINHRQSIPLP
T3 sequence (A0A098DND1 21-504 limits assumed): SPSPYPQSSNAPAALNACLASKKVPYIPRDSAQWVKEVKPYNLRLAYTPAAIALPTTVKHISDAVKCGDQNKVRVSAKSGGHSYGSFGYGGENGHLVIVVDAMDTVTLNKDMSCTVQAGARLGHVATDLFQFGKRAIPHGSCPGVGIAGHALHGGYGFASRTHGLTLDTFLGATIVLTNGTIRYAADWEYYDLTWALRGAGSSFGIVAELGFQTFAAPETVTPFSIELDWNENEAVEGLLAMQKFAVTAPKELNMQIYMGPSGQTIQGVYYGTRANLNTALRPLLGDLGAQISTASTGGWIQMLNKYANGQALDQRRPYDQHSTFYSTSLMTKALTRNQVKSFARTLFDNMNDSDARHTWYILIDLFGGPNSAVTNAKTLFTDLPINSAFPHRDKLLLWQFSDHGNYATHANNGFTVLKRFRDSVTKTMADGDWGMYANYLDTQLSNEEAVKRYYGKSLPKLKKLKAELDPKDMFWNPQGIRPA

On to `OC[C@H]1O[C@@H](O[C@H]2[C@H](O)[C@@H](O)[C@H](O[C@H]3[C@H](O)[C@@H](O)[C@H](O[C@H]4[C@H](O)[C@@H](O)C(O)O[C@@H]4CO)O[C@@H]3CO)O[C@@H]2CO)[C@H](O)[C@@H](O)[C@@H]1O` (some centres unmarked) [Cellotetraose], for which the Km on FgCelDH7C [1] (read-out: Enzyme / PbChi7A / Cellotetraose) stood at 6060 ± 270 µM.

Regarding `CC(=O)N[C@H]1C(O)O[C@H](CO)[C@H](O)[C@@H]1O` (some centres unmarked) [GalNAc], the Km on MoChi7A is 1690 ± 120 µM.

Consider `OC[C@H]1O[C@@H](O[C@H]2[C@H](O)[C@@H](O)[C@H](O[C@H]3[C@H](O)[C@@H](O)C(O)O[C@@H]3CO)O[C@@H]2CO)[C@H](O)[C@@H](O)[C@@H]1O` (some centres unmarked) [Cellotriose], for which the Km on FgCelDH7C [1] (read-out: Enzyme / Cellotriose, read-out: Enzyme / MoChi7A / Cellotriose) was 3940 ± 220 µM.

As for `Cc1cc2nc3c(=O)[nH]c(=O)nc-3n(C[C@H](O)[C@H](O)[C@H](O)COP(=O)(O)OP(=O)(O)OC[C@H]3O[C@@H](n4cnc5c(N)ncnc54)[C@H](O)[C@@H]3O)c2cc1C` [FAD], the “crystal structure, 1.6 Å” value on FgCelDH7C [2] was “FgCelDH7C is mono-covalently histidyl-tethered due to the substitution of the FAD-tethering cysteine to a glycine”. Further, the “crystal structure, 2.4 Å” value at FgChi7B is “isoalloxazine ring of the FAD cofactor in FgChi7B is bi-covalently anchored at the C6 atom”.

With `OC[C@H]1O[C@@H](O[C@H]2[C@H](O)[C@@H](O)C(O)O[C@@H]2CO)[C@H](O)[C@@H](O)[C@@H]1O` (some centres unmarked) [Cellobiose], the Km at FgCelDH7C [1] (read-out: Parameter / Cellobiose) was determined as 5350 ± 390 µM.

In the case of `CC(=O)N[C@H]1[C@H](O[C@H]2[C@H](O)[C@@H](NC(C)=O)C(O)O[C@@H]2CO)O[C@H](CO)[C@@H](O)[C@@H]1O` (some centres unmarked) [Chitobiose], at MoChi7A, the Km turned out to be 64 ± 10 µM.

On to `CC(=O)N[C@H]1C(O)O[C@H](CO)[C@@H](O)[C@@H]1O` (some centres unmarked) [GlcNAc], for which the Km on MoChi7A is 800 ± 50 µM.
